# How the values were obtained:
# THP-1 cells = experiment: SYK-dependent TNF-α release assay (IgG stimulation), ELISA; format: cell-based; conditions: THP-1 cells on human IgG-coated plate, 18 hours; read-out: TNF-α release inhibition, IgG stimulation IC50
# Method: In order to address cellular potency of Compounds of Formula (I), TNF-a production was measured on treatment of a series of concentration of SYK inhibitor in THP-1 cells.
# For SYK-dependent TNF-α release assay (i.e., via IgG stimulation), THP-1 cells derived from human monocytic cells were obtained from the American Type Culture Collection (ATCC, Manassas, Va.). This cell line was maintained with a Roswell Park Memorial Institute (RPMI) medium (GIBCO) containing 10% fetal bovine serum (FBS; GIBCO) and 0.05 mM solution of 2-mercaptoethanol. The THP-1 cells were seeded at 1×10^5 cells/100 μL/well into human IgG (10 ng/well, INVITROGEN)-coated 96 well culture plate, and serially diluted compound was then added. After an 18 hours of incubation period at 37° C., supernatants were collected for the determination of the TNF-α level by enzyme-linked immunosorbent assay (ELISA), and the remaining cells were subjected to an MTT (yellow tetrazolium salt) assay to determine the cytotoxic effects of the compound. The IC50 value of the test compound was calculated at Gradpad Prism 5 unless otherwise specified.
# full-length human SYK = full-length human SYK (Homo sapiens (Human), UniProt P43405); experiment: Inhibition of enzymatic SYK kinase activity (LANCE Ulight TK peptide); format: biochemical; conditions: ATP at Km (15 uM), 30 min pre-incubation
# Method: Compounds of the present invention were assayed to measure their capacity to inhibit a spleen tyrosine kinase (SYK).
# Compounds of the invention were initially diluted to 10 mM in 100% DMSO (CALBIOCHEM™) for storage and made into kinase buffer solution to create a compound concentration ranging from 1 uM and 10 uM. Serial dilutions of compounds of the invention were dispensed into a 96-well plate (GREINER BIOSCIENCES™) at 6 μL each. Purified full-length human SYK (CARNA BIOSCIENCES™) were diluted in kinase buffer and added to the compound solutions and pre-incubated for 30 minutes at room temperature. […] The reaction mixture was incubated for 1 hour. Following the incubation, the stop solution made with EDTA, water, and Lance detection buffer ([…]™) was added (12 μL each) to stop phosphorylation.
Structure (SMILES),IC50 (THP-1 cells),IC50 (full-length human SYK)
"CCn1cc(C(=O)C2CC2)c2cc(Nc3nccc(-n4cc(CN5C[C@@H](O)CO5)c(C)n4)n3)ccc21 [Compound 11, (R)-cyclopropyl(1-ethyl-5-(4-(4-((4-hydroxyisoxazolidin-2-yl)methyl)-3-methyl-1H-pyrazol-1-yl)pyrimidin-2-ylamino)-1H-indol-3-yl)methanone]",0.089 µM,0.00628 µM
"Cc1nn(-c2ccnc(Nc3ccc4c(c3)c(C(=O)C3CC3)cn4CC(F)(F)F)n2)cc1CN1CC(C)(O)CO1 (centres unmarked) [Compound 16, cyclopropyl(5-(4-(4-((4-hydroxy-4-methylisoxazolidin-2-yl)methyl)-3-methyl-1H-pyrazol-1-yl)pyrimidin-2-ylamino)-1-(2,2,2-trifluoroethyl)-1H-indol-3-yl)methanone]",0.226 µM,0.0142 µM
"Cc1nn(-c2ccnc(Nc3ccc4c(c3)c(C(=O)C(F)F)cn4C)n2)cc1CN1C[C@H](O)CO1 [Compound 4, (S)-2,2-difluoro-1-(5-(4-(4-((4-hydroxyisoxazolidin-2-yl)methyl)-3-methyl-1H-pyrazol-1-yl)pyrimidin-2-ylamino)-1-methyl-1H-indol-3-yl)ethanone]",0.045 µM,0.00942 µM
"O=C(c1cn(CC(F)(F)F)c2ccc(Nc3nccc(-n4cc(CN5C[C@H](O)CO5)cn4)n3)cc12)C1CC1 [Compound 34, (S)-cyclopropyl(5-(4-(4-((4-hydroxyisoxazolidin-2-yl)methyl)-1H-pyrazol-1-yl)pyrimidin-2-ylamino)-1-(2,2,2-trifluoroethyl)-1H-indol-3-yl)methanone]",0.055 µM,0.0058 µM
"Cc1nn(-c2ccnc(Nc3ccc4c(c3)c(C(=O)C3CC3)cn4CC(F)(F)F)n2)cc1CN1C[C@H](O)CO1 [Compound 15, (S)-cyclopropyl(5-(4-(4-((4-hydroxyisoxazolidin-2-yl)methyl)-3-methyl-1H-pyrazol-1-yl)pyrimidin-2-ylamino)-1-(2,2,2-trifluoroethyl)-1H-indol-3-yl)methanone]",0.066 µM,0.00298 µM
"Cc1nn(-c2ccnc(Nc3ccc4c(c3)c(S(C)(=O)=O)nn4C)n2)cc1CN1C[C@H](O)CO1 [Compound 26, (S)-2-((3-methyl-1-(2-(1-methyl-3-(methylsulfonyl)-1H-indazol-5-ylamino)pyrimidin-4-yl)-1H-pyrazol-4-yl)methyl)isoxazolidin-4-ol]",1.06 µM,0.0871 µM
"Cc1nn(-c2ccnc(Nc3ccc4c(c3)c(C(=O)C3CC3)cn4C)n2)cc1CN1CC(C)(O)CO1 (centres unmarked) [Compound 14, cyclopropyl(5-(4-(4-((4-hydroxy-4-methylisoxazolidin-2-yl)methyl)-3-methyl-1H-pyrazol-1-yl)pyrimidin-2-ylamino)-1-methyl-1H-indol-3-yl)methanone]",0.789 µM,0.0417 µM
"Cc1cnc(Nc2ccc3c(c2)c(C(=O)C2CC2)cn3C)nc1-n1cc(CN2C[C@H](O)CO2)c(C)n1 [Compound 19, (S)-cyclopropyl(5-(4-(4-((4-hydroxyisoxazolidin-2-yl)methyl)-3-methyl-1H-pyrazol-1-yl)-5-methylpyrimidin-2-ylamino)-1-methyl-1H-indol-3-yl)methanone]",0.821 µM,0.271 µM
"Cc1nn(-c2ccnc(Nc3ccc4c(c3)c(C(=O)C3CC3)cn4C(C)C)n2)cc1CN1C[C@H](O)CO1 [Compound 8, (S)-cyclopropyl(5-(4-(4-((4-hydroxyisoxazolidin-2-yl)methyl)-3-methyl-1H-pyrazol-1-yl)pyrimidin-2-ylamino)-1-isopropyl-1H-indol-3-yl)methanone]",0.097 µM,0.00737 µM
"CCn1cc(C(=O)C2CC2)c2cc(Nc3nccc(-n4cc(CN5C[C@H](O)CO5)c(C5CC5)n4)n3)ccc21 [Compound 25, (S)-cyclopropyl(5-(4-(3-cyclopropyl-4-((4-hydroxyisoxazolidin-2-yl)methyl)-1H-pyrazol-1-yl)pyrimidin-2-ylamino)-1-ethyl-1H-indol-3-yl)methanone]",0.465 µM,0.00585 µM

# Source: patent US9212178B2, “Substituted pyrimidine compounds and their use as SYK inhibitors” (Genosco, priority 2013, dated 2015)
